In patent publication US10711029B2, “Beta-d-2′-deoxy-2′-alpha-fluoro-2′-beta-c-substituted-4′fluoro-n6-substituted-6-amino-2-substituted purine nucleotides for the treatment of hepatitis c virus infection” (Atea Pharmaceuticals, Inc., priority 2016, dated 2020):

Experiments:
[1] = target: HCV RNA-dependent RNA polymerase (Hepatitis C virus genotype 1a, UniProt P27958); conditions: Ivanov et al., Russian J. Bioorg. Chem. 2010; cited from earlier work
[2] = Cytotoxicity in the replicon cells (staining with STT); assay type: cell-based; conditions: human, Huh-7 luc/neo ET cells, read-out: HCV Replicon CC50
Method: (§1) Huh-7 luc/neo ET cells bearing a discistronic HCV genotype 1b luciferase reporter replicon were plated at 7.5×10^3 cells/mi in duplicate 96-well plates for the parallel determination of antiviral efficacy (EC50) and cytotoxicity (TC50). The plates were cultured for 24 hours prior to the addition of compounds. Six serial one half log dilutions of the test articles (high test concentration of 100.0 μM. or high test concentration of 1.0 μM) and human interferon-alpha2b (high test 10.0 U/ml) were prepared in cell culture medium and added to the cultured cells in triplicate wells for each dilution. Six wells in the test plates received medium alone as an untreated control. Following 72 hours of culture in the presence of compound, one of the plates was used for the determination of cytotoxicity by staining with STT and the other for antiviral efficacy by determination of luciferase reporter activity. Cytotoxicity and efficacy data were collected and imported into a customized Excel workbook for determination of the TC50 and EC50 values.

[3] = test system: HCV genotype 1b luciferase reporter replicon; test: HCV replicon assay, antiviral efficacy by luciferase reporter activity; assay type: cell-based
Method: as §1

[4] = test system: Huh-7 luc/neo ET cells; test: Cytotoxicity in the replicon cells (staining with STT); assay type: cell-based; conditions: 72 hours, read-out: HCV Replicon CC50
Method: as §1

[5] = target: T1, adenosine deaminase (Homo sapiens, UniProt P00813); conditions: over a long period (120 minutes); WO 2010/091386; cited from earlier work
T1 sequence (P00813 1-363): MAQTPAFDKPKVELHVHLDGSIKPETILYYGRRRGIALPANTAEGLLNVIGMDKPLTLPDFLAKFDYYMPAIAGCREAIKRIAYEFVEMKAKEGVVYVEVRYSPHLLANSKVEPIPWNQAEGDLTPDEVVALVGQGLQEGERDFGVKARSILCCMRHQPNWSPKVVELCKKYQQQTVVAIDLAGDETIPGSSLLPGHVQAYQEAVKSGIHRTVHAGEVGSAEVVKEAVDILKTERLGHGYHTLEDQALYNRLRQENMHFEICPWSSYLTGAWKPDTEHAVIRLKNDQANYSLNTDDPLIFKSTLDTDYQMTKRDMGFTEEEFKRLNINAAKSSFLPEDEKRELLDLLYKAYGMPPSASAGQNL

Chain of HCV RNA-dependent RNA polymerase (P27958 2421-3011): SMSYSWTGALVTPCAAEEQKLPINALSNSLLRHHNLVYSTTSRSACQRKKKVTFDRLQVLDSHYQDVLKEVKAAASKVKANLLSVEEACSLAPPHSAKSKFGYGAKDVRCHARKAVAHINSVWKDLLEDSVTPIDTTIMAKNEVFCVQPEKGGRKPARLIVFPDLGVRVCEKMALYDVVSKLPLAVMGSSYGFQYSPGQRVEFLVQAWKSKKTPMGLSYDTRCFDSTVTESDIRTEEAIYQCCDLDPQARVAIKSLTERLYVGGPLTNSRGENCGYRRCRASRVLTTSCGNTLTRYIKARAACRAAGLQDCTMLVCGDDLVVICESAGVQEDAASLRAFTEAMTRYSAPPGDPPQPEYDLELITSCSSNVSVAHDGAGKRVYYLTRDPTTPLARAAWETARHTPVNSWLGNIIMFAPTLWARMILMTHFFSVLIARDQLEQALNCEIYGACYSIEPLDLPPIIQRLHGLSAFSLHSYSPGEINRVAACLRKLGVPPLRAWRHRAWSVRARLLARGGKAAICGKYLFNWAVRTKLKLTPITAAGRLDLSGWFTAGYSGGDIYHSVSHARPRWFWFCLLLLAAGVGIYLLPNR

| SMILES | CC50 at 72 h [2] | Fold increase in activity compared to parent nucleoside [3] | other results |
| --- | --- | --- | --- |
| O=c1ccn([C@@H]2O[C@](F)(COP(=O)(O)OP(=O)(O)OP(=O)(O)O)[C@@H](O)[C@H]2O)c(=O)[nH]1 [4′fluorouridine 5′-O-triphosphate] | – | – | inhibition of HCV RNA-dependent RNA polymerase [1]: effective inhibitor |
| CN(C)c1nc(N)nc2c1ncn2[C@@H]1O[C@](F)(CO)C(O)[C@@]1(C)F (stereo partly drawn) [Cmpd 1] | > 100 µM | – | – |
| CC(C)OC(=O)[C@H](C)NP(=O)(OC[C@@]1(F)O[C@@H](n2cnc3c(N(C)C)nc(N)nc32)[C@](C)(F)C1O)Oc1ccccc1 (stereo partly drawn) [Cmpd 2] | > 10 µM | 2,941 | – |
| CN(c1nc(N)nc2c1ncn2[C@@H]1O[C@](F)(CO)C(O)[C@@]1(C)F)C1CC1 (stereo partly drawn) [Cmpd 3] | > 100 µM | – | – |
| CC(C)OC(=O)[C@H](C)NP(=O)(OC[C@@]1(F)O[C@@H](n2cnc3c(N(C)C4CC4)nc(N)nc32)[C@](C)(F)C1O)Oc1ccccc1 (stereo partly drawn) [Cmpd 4] | – | 667 | CC50 [4]: > 10 µM |
| CNc1nc(N)nc2c1ncn2[C@@H]1O[C@](F)(CO)C(O)[C@@]1(C)F (stereo partly drawn) [Cmpd 5] | > 100 µM | – | – |
| CNc1nc(N)nc2c1ncn2[C@@H]1O[C@](F)(COP(=O)(N[C@@H](C)C(=O)OC(C)C)Oc2ccccc2)C(O)[C@@]1(C)F (stereo partly drawn) [Cmpd 6] | > 10 µM | 10,000 | – |
| CC(C)OC(=O)[C@H](C)N[P@](=O)(OC[C@@]1(F)O[C@@H](n2cnc3c(N(C)C)nc(F)nc32)[C@](C)(F)[C@@H]1O)Oc1ccccc1 [Cmpd 8] | 35.3 µM | 2521 | – |
| CNc1nc(F)nc2c1ncn2[C@@H]1O[C@](F)(CO[P@@](=O)(N[C@@H](C)C(=O)OC(C)C)Oc2ccccc2)[C@@H](O)[C@@]1(C)F [Cmpd 10] | 54 µM | 4.7 | – |
| C[C@@]1(F)C(O)[C@@](F)(CO)O[C@H]1n1cnc2c(N3CCCC3)nc(N)nc21 (stereo partly drawn) [Cmpd 11] | > 100 µM | – | – |
| CC(C)OC(=O)[C@H](C)NP(=O)(OC[C@@]1(F)O[C@@H](n2cnc3c(N4CCCC4)nc(N)nc32)[C@](C)(F)C1O)Oc1ccccc1 (stereo partly drawn) [Cmpd 12] | > 10 µM | >31.3 | – |
| CCN(C)c1nc(N)nc2c1ncn2[C@@H]1O[C@](F)(CO)C(O)[C@@]1(C)F (stereo partly drawn) [Cmpd 13] | > 100 µM | – | – |
| CCN(C)c1nc(N)nc2c1ncn2[C@@H]1O[C@](F)(COP(=O)(N[C@@H](C)C(=O)OC(C)C)Oc2ccccc2)C(O)[C@@]1(C)F (stereo partly drawn) [Cmpd 14] | > 10 µM | 434 | – |
| CC(C)OC(=O)[C@H](C)NP(=O)(OC[C@@]1(F)O[C@@H](n2cnc3c(N(C)C4CC4)nc(N)nc32)[C@](C)(F)C1O)Oc1ccccc1 (stereo partly drawn) [Cmpd 15] | – | 3332 | CC50 [4]: > 50 µM |
| CC(C)OC(=O)[C@H](C)N[P@](=O)(OC[C@@]1(F)O[C@@H](n2cnc3c(N(C)C)nc(N)nc32)[C@](C)(F)C1O)Oc1ccccc1 (stereo partly drawn) [Cmpd 16] | > 50 µM | 40 | – |
| CNc1nc(F)nc2c1ncn2[C@@H]1O[C@](F)(CO[P@@](=O)(N[C@@H](C)C(=O)OC(C)C)Oc2ccccc2)C(O)[C@@]1(C)F (stereo partly drawn) [Cmpd 17] | > 50 µM | 4.3 | – |
| CN(C)c1nc(N)nc2[nH]cnc12 [N^6-dimethyl-2,6-diaminopurine] | – | – | deamination by adenosine deaminase [5]: not substantially deaminated |
